Where “and” joins values, the source holds several entries; their conditions need not be identical. Equal values may be shown once.
Legend:
CDK2 = target: T1, CDK2 (Homo sapiens, UniProt P24941); test: Liability panel screening by DSF: CDK2; format: binding; details: DSF, 20 µM, n=2; read-out: Mean ΔTM CDK2
T1 construct: made in house
In short: (§1)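 ∆Tm in K was taken from Boltzmann-fitted unfolding inflection points, run in duplicate with a temperature ramp of 3 °C per minute up to 85 °C. Each recombinant protein (2 µM) was in HEPES 10 mM pH 7.5 and NaCl 500 mM, with SYPRO Orange dye at 1:1000.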

[1] = tested on: NF-κB activity in HEK293 NF-κB reporter cells; test: NF-kB activity assay (GFP reporter, ionomycin/PMA); format: cell-based; details: for Mean NFκB response: n=3
In short: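 Reporter readout: GFP-expressing cells normalized to confluence, imaged every 90 min across 24 h after ionomycin (100 ng/mL)/PMA (10 ng/mL) stimulation of HEK293 cells pre-treated 4 h with compound (0.1% DMSO); triplicate independent experiments.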

Gal4-VP16 = format: cell-based; details: 1 µM; vs. DMSO ctrl; single replicates n=1-3
CSNK1D = target: T2, CSNK1D (Homo sapiens, UniProt P48730); test: Liability panel screening by DSF: CSNK1D; format: binding; details: DSF, 20 µM, n=2; read-out: Mean ΔTM CSNK1D
T2 construct: made in house
T2 sequence (P48730 whole entry, species assumed): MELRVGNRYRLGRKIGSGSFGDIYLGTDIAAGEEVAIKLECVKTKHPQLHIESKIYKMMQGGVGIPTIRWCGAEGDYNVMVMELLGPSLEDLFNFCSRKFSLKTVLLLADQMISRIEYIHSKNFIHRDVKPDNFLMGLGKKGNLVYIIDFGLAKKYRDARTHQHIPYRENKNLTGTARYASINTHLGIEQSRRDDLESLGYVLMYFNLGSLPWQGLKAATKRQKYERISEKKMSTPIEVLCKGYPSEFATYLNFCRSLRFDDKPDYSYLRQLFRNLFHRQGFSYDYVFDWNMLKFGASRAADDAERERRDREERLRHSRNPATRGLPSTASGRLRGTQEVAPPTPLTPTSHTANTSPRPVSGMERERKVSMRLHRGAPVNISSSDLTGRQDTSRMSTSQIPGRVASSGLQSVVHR
In short: as §1

AURKA = target: T3, AURKA (Homo sapiens, UniProt O14965); test: Liability panel screening by DSF: AURKA; format: binding; details: DSF, 20 µM, n=2; read-out: Mean ΔTM AURKA
T3 construct: made in house
T3 sequence (O14965 1-403): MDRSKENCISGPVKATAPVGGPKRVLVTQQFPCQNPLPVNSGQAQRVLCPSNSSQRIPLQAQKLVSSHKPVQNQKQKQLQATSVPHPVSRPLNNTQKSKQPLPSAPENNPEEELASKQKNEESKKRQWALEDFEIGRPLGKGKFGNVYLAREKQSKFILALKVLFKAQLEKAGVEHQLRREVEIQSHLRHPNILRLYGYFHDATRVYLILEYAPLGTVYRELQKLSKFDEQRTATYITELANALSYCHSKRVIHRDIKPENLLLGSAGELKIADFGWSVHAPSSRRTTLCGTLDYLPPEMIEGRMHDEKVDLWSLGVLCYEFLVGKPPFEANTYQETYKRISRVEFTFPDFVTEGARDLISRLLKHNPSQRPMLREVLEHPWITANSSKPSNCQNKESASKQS
In short: as §1

HEK293T cells [2] = test: Cytotoxicity: growth-rate (change in confluence over 24 h); details: 1 µM, normalized to 0.1% DMSO control, single replicates (n=1...)
HEK293T cells [3] = test: Cytotoxicity: necrosis induction (red fluorescent dye for permeable plasma membranes); format: cell-based; details: 1 µM, 24 h, necrotic cell count normalized to 0.1% DMSO, single replicates;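 further: compounds applied in DMEM high glucose with 0.1% FCS and 0.1% DMSO, necrotic HEK293T cells counted by red staining of cells whose plasma membranes had become permeable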
ABL1 = target: T4, ABL1 (Homo sapiens, UniProt P00519); test: Liability panel screening by DSF: ABL1; format: binding; details: DSF, 20 µM, n=2; read-out: Mean ΔTM ABL1
T4 construct: made in house
T4 sequence (P00519 whole entry, species assumed): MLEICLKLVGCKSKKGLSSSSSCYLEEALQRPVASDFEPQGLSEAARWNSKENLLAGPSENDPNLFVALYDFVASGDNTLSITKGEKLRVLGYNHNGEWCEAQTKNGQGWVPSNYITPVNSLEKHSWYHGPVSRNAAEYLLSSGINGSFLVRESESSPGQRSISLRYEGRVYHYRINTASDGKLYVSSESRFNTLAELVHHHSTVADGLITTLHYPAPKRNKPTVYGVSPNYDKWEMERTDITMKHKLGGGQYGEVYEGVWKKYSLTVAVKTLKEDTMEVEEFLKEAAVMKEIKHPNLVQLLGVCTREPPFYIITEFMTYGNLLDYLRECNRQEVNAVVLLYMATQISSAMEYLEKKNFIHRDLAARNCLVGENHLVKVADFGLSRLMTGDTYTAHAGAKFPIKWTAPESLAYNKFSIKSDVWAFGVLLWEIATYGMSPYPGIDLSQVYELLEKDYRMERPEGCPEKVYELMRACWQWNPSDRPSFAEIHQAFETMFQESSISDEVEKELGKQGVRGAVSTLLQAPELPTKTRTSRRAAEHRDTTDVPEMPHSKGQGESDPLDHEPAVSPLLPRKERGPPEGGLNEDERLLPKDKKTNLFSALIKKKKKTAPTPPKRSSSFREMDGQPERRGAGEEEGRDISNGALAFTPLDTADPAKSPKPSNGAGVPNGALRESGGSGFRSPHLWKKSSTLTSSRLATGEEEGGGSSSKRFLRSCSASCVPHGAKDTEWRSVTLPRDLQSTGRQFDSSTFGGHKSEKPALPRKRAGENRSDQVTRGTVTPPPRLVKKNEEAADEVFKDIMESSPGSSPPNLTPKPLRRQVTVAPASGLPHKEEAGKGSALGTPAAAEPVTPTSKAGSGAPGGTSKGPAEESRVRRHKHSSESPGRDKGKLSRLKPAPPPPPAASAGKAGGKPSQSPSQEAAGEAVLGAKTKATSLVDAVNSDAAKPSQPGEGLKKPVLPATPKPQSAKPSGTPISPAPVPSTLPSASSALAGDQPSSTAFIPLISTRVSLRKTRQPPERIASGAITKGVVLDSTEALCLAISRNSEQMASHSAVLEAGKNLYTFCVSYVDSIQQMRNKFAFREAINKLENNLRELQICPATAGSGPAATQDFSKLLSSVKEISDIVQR
In short: as §1

BRPF1 = target: T5, BRPF1 (Homo sapiens, UniProt P55201); test: Liability panel screening by DSF: BRPF1; format: binding; details: DSF, 20 µM, n=2; read-out: Mean ΔTM BRPF1
T5 construct: This panel comprised ten highly ligandable kinases and bromodomains; made in house
T5 sequence (P55201 628-732 limits assumed): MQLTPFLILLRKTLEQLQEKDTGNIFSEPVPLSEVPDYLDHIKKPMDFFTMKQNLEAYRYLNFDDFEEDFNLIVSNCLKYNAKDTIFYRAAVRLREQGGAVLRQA
In short: as §1

GSK3B = target: T6, GSK3B (Homo sapiens, UniProt P49841); test: Liability panel screening by DSF: GSK3B; format: binding; details: DSF, 20 µM, n=2; read-out: Mean ΔTM GSK3B
T6 construct: made in house
T6 sequence (P49841 whole entry, species assumed): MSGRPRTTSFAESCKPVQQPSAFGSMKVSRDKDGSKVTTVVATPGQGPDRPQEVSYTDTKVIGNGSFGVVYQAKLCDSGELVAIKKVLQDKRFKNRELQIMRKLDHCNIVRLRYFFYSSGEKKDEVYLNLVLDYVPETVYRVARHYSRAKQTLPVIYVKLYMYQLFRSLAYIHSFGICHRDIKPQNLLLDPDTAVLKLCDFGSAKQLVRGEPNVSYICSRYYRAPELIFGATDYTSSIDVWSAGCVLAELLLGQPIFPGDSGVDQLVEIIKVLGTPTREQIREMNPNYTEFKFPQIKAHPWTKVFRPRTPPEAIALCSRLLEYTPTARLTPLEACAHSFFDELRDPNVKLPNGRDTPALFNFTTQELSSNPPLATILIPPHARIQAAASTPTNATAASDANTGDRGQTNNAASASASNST

FGFR3 = target: T7, FGFR3 (Homo sapiens, UniProt P22607); test: Liability panel screening by DSF: FGFR3; format: binding; details: DSF, 20 µM, n=2; read-out: Mean ΔTM FGFR3
T7 construct: made in house
T7 sequence (P22607 23-806, species assumed): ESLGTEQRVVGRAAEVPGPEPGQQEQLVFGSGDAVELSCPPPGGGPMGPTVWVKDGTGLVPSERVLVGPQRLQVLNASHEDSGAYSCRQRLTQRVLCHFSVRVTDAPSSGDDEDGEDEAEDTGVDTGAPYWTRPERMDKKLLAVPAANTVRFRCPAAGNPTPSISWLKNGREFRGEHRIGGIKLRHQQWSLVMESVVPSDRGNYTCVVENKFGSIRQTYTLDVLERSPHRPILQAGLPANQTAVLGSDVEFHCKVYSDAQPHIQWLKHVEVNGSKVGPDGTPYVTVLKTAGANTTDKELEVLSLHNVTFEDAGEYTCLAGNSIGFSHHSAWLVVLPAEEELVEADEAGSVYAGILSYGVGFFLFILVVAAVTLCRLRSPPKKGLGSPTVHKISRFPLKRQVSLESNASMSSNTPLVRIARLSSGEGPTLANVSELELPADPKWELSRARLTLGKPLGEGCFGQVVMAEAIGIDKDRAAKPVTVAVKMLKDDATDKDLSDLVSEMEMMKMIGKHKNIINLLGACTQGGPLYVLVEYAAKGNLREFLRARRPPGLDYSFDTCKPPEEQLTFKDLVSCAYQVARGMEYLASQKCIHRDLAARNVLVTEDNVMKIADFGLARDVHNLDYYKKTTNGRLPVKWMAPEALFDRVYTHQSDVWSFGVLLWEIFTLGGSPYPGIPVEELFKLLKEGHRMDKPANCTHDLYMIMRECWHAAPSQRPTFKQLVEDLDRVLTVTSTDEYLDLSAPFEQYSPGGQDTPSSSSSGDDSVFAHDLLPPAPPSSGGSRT
In short: as §1

HEK293T cells [4] = test: Cytotoxicity: apoptosis induction (caspase-3/7 DEVD fluorogenic DNA dye); details: 1 µM; HEK293T, 24 h; apoptotic cell count normalized to 0.1% DMSO; single replicates
Experimental: Cells were incubated with the test compounds at the indicated concentrations solubilized with 0.1% DMSO for 24 h. Growth-rate was determined based on the change in confluence over 24 h normalized to the change in confluence of cells treated with the 0.1% DMSO control (n = 10). Metabolic activity was determined with a water-soluble tetrazolium-8 (WST-8) assay (n = 8) after 24 h treatment. Apoptotic cells were detected with a fluorogenic DNA dye coupled to the caspase-3/7 recognition sequence (DEVD) after 24 h treatment and the apoptotic cell count was normalized to 0.1% DMSO treated cells (n = 6).
HEK293T cells (German Collection of Microorganisms and Cell Culture GmbH, DSMZ; #ACC305) were cultured in DMEM high glucose, supplemented with 10% fetal calf serum (FCS), sodium pyruvate (1 mM), penicillin (100 µ/mL) and streptomycin (100 µg/mL) at 37 °C and 5% (v/v) CO2, and seeded in pre-coated (10 µg/mL collagen G solution (Merck KgaA; #L7213) for 30 min at 37 °C) 96-well plates (2 × 10^5 cells per well). After 24 h, the cells were treated with the respective NR3 CG compound candidate at the recommended concentration, bexarotene (100 µM) or doxorubicin (30 µM) as positive controls in DMEM high glucose supplemented with 0.1% FCS, penicillin (100 µ/mL), streptomycin (100 µg/mL) and 0.1% DMSO, or 0.1% DMSO alone as an untreated control. Each sample was prepared in at least four biologically independent replicates. […] Thereafter, the medium was aspirated and the cells were incubated for 3 h with 90 µL DMEM high glucose supplemented with 0.2% FCS, penicillin (100 µ/mL) and streptomycin (100 µg/mL) and additionally containing 10 µL Cell Counting Kit 8 solution (CCK-8; MedChemExpress, Monmouth Junction, New York, USA; #HY-K0301), and absorbance was measured at 1 h, 2 h and 3 h of incubation at 450 nm on a Tecan Spark Cyto to assess metabolic activity of the cells. Before drug administration, after the first medium exchange, 24 h after drug administration, and after fluorescence imaging cell confluence was assessed using the Tecan Spark Cyto, to account for changes in cell confluence due to drug administration and cell handling. Compound effects on cell confluence, apoptosis, metabolic activity and necrosis were normalized to the vehicle control of each biological replicate individually.

MAPK1 = target: T8, MAPK1 (Homo sapiens, UniProt P28482); test: Liability panel screening by DSF: MAPK1; format: binding; details: DSF, 20 µM, n=2; read-out: Mean ΔTM MAPK1
T8 construct: made in house
T8 sequence (P28482 whole entry, species assumed): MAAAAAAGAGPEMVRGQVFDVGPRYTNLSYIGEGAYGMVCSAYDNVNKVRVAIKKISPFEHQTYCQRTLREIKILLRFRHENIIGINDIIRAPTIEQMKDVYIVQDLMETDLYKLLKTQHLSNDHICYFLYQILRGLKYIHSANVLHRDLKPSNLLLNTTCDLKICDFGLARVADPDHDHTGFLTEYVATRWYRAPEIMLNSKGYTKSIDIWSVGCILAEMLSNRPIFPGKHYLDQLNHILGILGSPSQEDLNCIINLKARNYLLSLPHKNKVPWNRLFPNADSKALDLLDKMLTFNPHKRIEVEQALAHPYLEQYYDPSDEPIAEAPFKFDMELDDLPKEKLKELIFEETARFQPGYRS
In short: as §1

TRIM24 = target: T9, TRIM24 (Homo sapiens, UniProt O15164); test: Liability panel screening by DSF: TRIM24; format: binding; details: DSF, 20 µM, n=2; read-out: Mean ΔTM TRIM24
T9 construct: This panel comprised ten highly ligandable kinases and bromodomains; made in house
T9 sequence (O15164 899-1004 limits assumed): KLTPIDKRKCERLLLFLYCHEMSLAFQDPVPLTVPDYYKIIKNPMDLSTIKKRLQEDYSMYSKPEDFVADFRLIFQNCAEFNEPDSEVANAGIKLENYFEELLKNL
In short: as §1

BRD4 = target: T10, BRD4 (Homo sapiens, UniProt O60885); test: Liability panel screening by DSF: BRD4; format: binding; details: DSF, 20 µM, n=2; read-out: Mean ΔTM BRD4
T10 construct: This panel comprised ten highly ligandable kinases and bromodomains; made in house
In short: as §1

Compound	ΔTm at 20 µM (CDK2)	Mean NFκB response ([1]; 1 µM, 1,5 h)	Mean NFκB response ([1]; 1 µM, 4,5 h)	Mean NFκB response ([1]; 1 µM, 7,5 h)	Mean NFκB response ([1]; 1 µM, 10,5 h)	Mean NFκB response ([1]; 1 µM, 13,5 h)	Mean NFκB response ([1]; 1 µM, 16,6 h)	Mean NFκB response ([1]; 1 µM, 19,5 h)	Mean NFκB response ([1]; 1 µM, 22,5 h)	Mean NFκB response ([1]; 1 µM, 3 h)	Mean NFκB response ([1]; 1 µM, 6 h)	Mean NFκB response ([1]; 1 µM, 9 h)	Mean NFκB response ([1]; 1 µM, 12 h)	Mean NFκB response ([1]; 1 µM, 15 h)	Mean NFκB response ([1]; 1 µM, 18 h)	Mean NFκB response ([1]; 1 µM, 21 h)	Mean NFκB response ([1]; 1 µM, 24 h)	VP16 control [fold reporter gene activity] (Gal4-VP16)	ΔTm at 20 µM (CSNK1D)	ΔTm at 20 µM (AURKA)	also measured
Cc1ccc2c(NC[C@](O)(CC(C)(C)c3cc(F)cc4c3OCC4)C(F)(F)F)cccc2n1 [Mapracorat]	-0.17 °C	2171.23 GFP+-cells/confluence ∙ 1000	3001.35 GFP+-cells/confluence ∙ 1000	6252.60 GFP+-cells/confluence ∙ 1000	12057.95 GFP+-cells/confluence ∙ 1000	15815.67 GFP+-cells/confluence ∙ 1000	19330.00 GFP+-cells/confluence ∙ 1000	21866.67 GFP+-cells/confluence ∙ 1000	23846.67 GFP+-cells/confluence ∙ 1000	2434.19 GFP+-cells/confluence ∙ 1000	4081.73 GFP+-cells/confluence ∙ 1000	9170.03 GFP+-cells/confluence ∙ 1000	13883.00 GFP+-cells/confluence ∙ 1000	17560.00 GFP+-cells/confluence ∙ 1000	20616.67 GFP+-cells/confluence ∙ 1000	23216.67 GFP+-cells/confluence ∙ 1000	25073.33 GFP+-cells/confluence ∙ 1000	0.84 fold reporter gene activity and 0.88 fold reporter gene activity and 1.01 fold reporter gene activity	-0.78 °C	-0.69 °C	NF-κB activity (inflammatory response to ionomycin/PMA) ([1]; HEK293 NF-κB reporter cells, compounds at recommended concentrations, imaged over 24 h, n = 3): consistently delayed and strongly diminished NF-κB activity; Growth rate [GR] (HEK293T cells [2]): 0.90 and 6.11 and 0.92 and 1.17 and 0.84 and 0.73 and 1.07 and 1.61 and 3.67 and 14.17; Necrosis induction [NI] (HEK293T cells [3]): 1.18 and 1.03 and 0.88 and 0.99; ΔTm at 20 µM (ABL1): 0.24 °C; ΔTm at 20 µM (BRPF1): 0.63 °C; ΔTm at 20 µM (GSK3B): -0.25 °C; ΔTm at 20 µM (FGFR3): -1.28 °C; Apoptosis induction [AI] (HEK293T cells [4]): -0.37 and -0.27 and 0.87 and 1.32 and 1.12 and 1.57; ΔTm at 20 µM (MAPK1): -0.47 °C; ΔTm at 20 µM (TRIM24): -0.84 °C; ΔTm at 20 µM (BRD4): -0.11 °C
COc1cc(/C=C(\C#N)C(=O)Nc2nnc(C(F)(F)F)s2)ccc1OCc1ccc(C(F)(F)F)cc1C(F)(F)F [XCT790]	0.38 °C	3626.75 GFP+-cells/confluence ∙ 1000	4074.08 GFP+-cells/confluence ∙ 1000	7428.22 GFP+-cells/confluence ∙ 1000	16505.45 GFP+-cells/confluence ∙ 1000	23920.00 GFP+-cells/confluence ∙ 1000	29753.33 GFP+-cells/confluence ∙ 1000	33970.00 GFP+-cells/confluence ∙ 1000	37876.67 GFP+-cells/confluence ∙ 1000	3669.25 GFP+-cells/confluence ∙ 1000	4944.18 GFP+-cells/confluence ∙ 1000	11887.81 GFP+-cells/confluence ∙ 1000	20416.67 GFP+-cells/confluence ∙ 1000	27150.00 GFP+-cells/confluence ∙ 1000	32423.33 GFP+-cells/confluence ∙ 1000	35883.33 GFP+-cells/confluence ∙ 1000	39596.67 GFP+-cells/confluence ∙ 1000	1.11 fold reporter gene activity and 0.95 fold reporter gene activity and 0.91 fold reporter gene activity	0.0531 °C	-0.27 °C	Growth rate [GR] (HEK293T cells [2]): 0.75 and 0.63 and 1.18 and 1.17 and 1.04 (2×) and 0.70 and 0.89 and 0.87 and 0.19; Necrosis induction [NI] (HEK293T cells [3]): 0.92 and 0.82 and 0.84 and 0.79; ΔTm at 20 µM (ABL1): 0.47 °C; ΔTm at 20 µM (BRPF1): -1.02 °C; ΔTm at 20 µM (GSK3B): -0.62 °C; ΔTm at 20 µM (FGFR3): 0.83 °C; Apoptosis induction [AI] (HEK293T cells [4]): 0.85 (2×) and 0.75 and 0.81 and 1.26 and 1.13; ΔTm at 20 µM (MAPK1): 0.28 °C; ΔTm at 20 µM (TRIM24): 0.29 °C; ΔTm at 20 µM (BRD4): -2.31 °C

Reference: article PMC11790914, “Chemogenomics for steroid hormone receptors (NR3)” (Communications Chemistry, 2025)
